The values that follow come from patent publication US10508104B2, “6-hydroxy-5-(phenyl/heteroarylsulfonyl)pyrimidin-4(1H)-one as APJ agonists” (Bristol-Myers Squibb Company, priority 2016, dated 2019).

human APJ receptor, sequence (P35414 whole entry): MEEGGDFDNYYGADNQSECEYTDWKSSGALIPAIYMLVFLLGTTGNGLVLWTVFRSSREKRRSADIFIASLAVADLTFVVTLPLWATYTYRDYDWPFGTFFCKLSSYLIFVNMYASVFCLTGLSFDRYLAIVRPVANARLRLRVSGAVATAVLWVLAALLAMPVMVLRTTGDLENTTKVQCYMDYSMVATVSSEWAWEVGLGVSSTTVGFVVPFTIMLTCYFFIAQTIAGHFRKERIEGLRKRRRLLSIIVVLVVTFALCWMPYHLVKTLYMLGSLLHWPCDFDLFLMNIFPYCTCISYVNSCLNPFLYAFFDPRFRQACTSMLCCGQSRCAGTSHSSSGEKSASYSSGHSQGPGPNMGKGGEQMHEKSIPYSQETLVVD

One experiment has as its target human APJ receptor (Homo sapiens (Human), UniProt P35414). Put plainly: Intracellular cAMP accumulation assay (APJ hcAMP, HTRF). It counts as cell-based. As to conditions: HEK293 cells stably expressing human APJ receptor; inhibition of forskolin-mediated cAMP production; read-out: Human APJ cAMP EC50 Potency range. How it is done: Intracellular cAMP Accumulation Assay
HEK293 cells stably expressing human APJ receptor were used to assess the activity of compounds. Cultured cells were detached and resuspended in the cAMP Homogeneous Time-Resolved Fluorescence (HTRF) assay buffer (Cisbio cat; #62AM4PEJ). The assay was performed in 384-well assay plates (Perkin-Elmer; cat #6008289) according to assay protocol provided by the manufacturer. Serial dilutions of a compound together with assay buffer containing […] and 2 μM forskolin were added to each well containing 5,000 cells and incubated for 30 minutes at room temperature. Subsequently, cAMP D2 reagent was added in the lysis buffer followed by the EuK antibody (Cisbio; cat #62AM4PEJ) and incubated for 60 min. The fluorescence emission ratio was measured using fluorometer. The intracellular cAMP concentrations (compound-stimulated inhibition of forskolin-mediated cAMP production) were calculated by extrapolation from a standard curve using known cAMP concentrations. The EC50 values were obtained by fitting the data to a sigmoidal concentration-response curve with variable slope.
The EC50 value of each compound is presented at the end of the example description.
The biological activity of the exemplified compounds of this invention determined by the assay described above is shown at the end of each example.
For the compound `CCOCc1nc(=O)c(S(=O)(=O)c2ccc(-c3ccncc3C)cc2)c(O)n1[C@@H](COC)c1cc(F)cc(F)c1` [Example 387, 1-[(1R)-1-(3,5-difluorophenyl)-2-methoxyethyl]-2-(ethoxymethyl)-6-hydroxy-5-[4-(3-methylpyridin-4-yl)benzenesulfonyl]-1,4-dihydropyrimidin-4-one], the EC50 lay within 0.01 to 10 nM. In the case of `CC[C@@H](c1cccc(C#N)c1)n1c(CC2CC2)nc(=O)c(S(=O)(=O)c2ccc(-c3ccnc(F)c3C)cc2)c1O` [Example 442, 3-[(1S)-1-[2-(cyclopropylmethyl)-5-[4-(2-fluoro-3-methylpyridin-4-yl)benzenesulfonyl]-6-hydroxy-4-oxo-1,4-dihydropyrimidin-1-yl]propyl]benzonitrile], the 50% effective concentration (EC50) lay within 0.01 to 10 nM. The same measure, in the same setting: in the case of `CCCCc1nc(=O)c(S(=O)(=O)c2ccc(-c3ccc(F)nc3F)cc2)c(O)n1[C@@H](CC)c1cccc(C#N)c1` [Example 503, 3-[(1S)-1-{2-butyl-5-[4-(2,6-difluoropyridin-3-yl)benzenesulfonyl]-6-hydroxy-4-oxo-1,4-dihydropyrimidin-1-yl}propyl]benzonitrile] it was 0.01 to 10 nM. Consider `CCCCc1nc(=O)c(S(=O)(=O)c2ccc(-c3cccc(C#N)c3C)cc2)c(O)n1[C@@H](CC)c1cccc(C#N)c1` [Example 492, 4′-({2-butyl-1-[(1S)-1-(3-cyanophenyl)propyl]-6-hydroxy-4-oxo-1,4-dihydropyrimidin-5-yl}sulfonyl)-2-methyl-[1,1′-biphenyl]-3-carbonitrile], for which the EC50 is 0.01 to 10 nM. With `CCCCc1nc(=O)c(S(=O)(=O)c2ccc(-c3ccccc3C(=O)NC)cc2)c(O)n1[C@@H]1CCc2ccc(C#N)cc21` [Example 548, 4′-({2-butyl-1-[(1R)-6-cyano-2,3-dihydro-1H-inden-1-yl]-6-hydroxy-4-oxo-1,4-dihydropyrimidin-5-y1}sulfonyl)-N-methyl-[1,1′-biphenyl]-2-carboxamide], the EC50 fell in the range of 10 to 100 nM.

In the case of `CCCCc1nc(=O)c(S(=O)(=O)c2ccc(-c3ccncc3C)cn2)c(O)n1[C@@H](CC)c1cccc(C#N)c1` [Example 457, 3-[(1S)-1-[2-butyl-6-hydroxy-5-({3′-methyl-[3,4′-bipyridine]-6-yl}sulfonyl)-4-oxo-1,4-dihydropyrimidin-1-yl]propyl]benzonitrile], the 50% effective concentration (EC50) was 0.01 to 10 nM. On the same count and under the same terms, then `CC[C@@H](c1cccc(C#N)c1)n1c(COC(C)C)nc(=O)c(S(=O)(=O)c2ccc(-c3ccncc3C#N)cc2)c1O` [Example 403, 4-[4-({1-[(1S)-1-(3-cyanophenyl)propyl]-6-hydroxy-4-oxo-2-[(propan-2-yloxy)methyl]-1,4-dihydropyrimidin-5-yl}sulfonyl)phenyl]pyridine-3-carbonitrile], with 0.01 to 10 nM.

The experiment is the same for the next values; noted with them: human APJ, cAMP accumulation; read-out: Human APJ cAMP EC50 Potency range.
Turning to `COC[C@@H](c1ccccc1)n1c(COC(C)C)nc(=O)c(S(=O)(=O)c2ccc(-c3ccc(F)nc3C)c(F)c2)c1O` [Example 304, 5-[3-fluoro-4-(6-fluoro-2-methylpyridin-3-yl)benzenesulfonyl]-6-hydroxy-1-[(1R)-2-methoxy-1-phenylethyl]-2-[(propan-2-yloxy)methyl]-1,4-dihydropyrimidin-4-one], the half-maximal effective concentration (EC50) fell in the range of 0.01 to 10 nM.

As to `COc1cccc(OC)c1-n1c(-c2cncc(C)c2)nc(=O)c(S(=O)(=O)c2ccc(-c3cccnc3C)cc2)c1O` [Example 272, 1-(2,6-dimethoxyphenyl)-6-hydroxy-2-(5-methylpyridin-3-yl)-5-[4-(2-methylpyridin-3-yl)benzenesulfonyl]-1,4-dihydropyrimidin-4-one], the concentration giving a half-maximal response (EC50) lay in the range of 0.01 to 10 nM.

The experiment is the same for the next values; noted with them: human APJ, intracellular cAMP accumulation; read-out: Human APJ cAMP EC50 Potency range.
`CCCCc1nc(=O)c(S(=O)(=O)c2ccc(-c3ccnc(C)c3)cc2)c(O)n1[C@H]1CCc2ccccc21` [Example 156, 2-butyl-1-[(1S)-2,3-dihydro-1H-inden-1-yl]-6-hydroxy-5-[4-(2-methylpyridin-4-yl)benzenesulfonyl]-1,4-dihydropyrimidin-4-one]: the 50% effective concentration (EC50) lay in the range of 100 to 300 nM.

Consider `CCCCc1nc(=O)c(S(=O)(=O)c2ccc(-c3cccnc3C)cc2)c(O)n1[C@@H](COC)c1ccccc1` [Example 149, 2-butyl-6-hydroxy-1-[(1R)-2-methoxy-1-phenylethyl]-5-[4-(2-methylpyridin-3-yl)benzenesulfonyl]-1,4-dihydropyrimidin-4-one], for which the EC50 was 0.01 to 10 nM. On the same count and under the same terms, in the case of `CCCc1nc(=O)c(S(=O)(=O)c2ccc(-c3ccc(F)nc3C)cc2)c(O)n1[C@@H](COC)c1ccccc1` [Example 177, 5-[4-(6-fluoro-2-methylpyridin-3-yl)benzenesulfonyl]-6-hydroxy-1-[(1R)-2-methoxy-1-phenylethyl]-2-propyl-1,4-dihydropyrimidin-4-one] it was 0.01 to 10 nM; in that of `CCOCc1nc(=O)c(S(=O)(=O)c2ccc(C)cc2)c(O)n1-c1c(CC)cccc1CC` [Example 67, 1-(2,6-diethylphenyl)-2-(ethoxymethyl)-6-hydroxy-5-(4-methylbenzenesulfonyl)-1,4-dihydropyrimidin-4-one], 0.01 to 10 nM; in that of `COc1cccc(OC)c1-n1c(COC(C)C)nc(=O)c(S(=O)(=O)c2ccc(-c3ccc(F)nc3)cc2)c1O` [Example 32, 1-(2,6-dimethoxyphenyl)-5-[4-(6-fluoropyridin-3-yl)benzenesulfonyl]-6-hydroxy-2-[(propan-2-yloxy)methyl]-1,4-dihydropyrimidin-4-one], 0.01 to 10 nM. The same measure, in the same setting: in the case of `COC[C@@H](c1ccccc1)n1c(CC2CC2)nc(=O)c(S(=O)(=O)c2ccc(-c3ccncc3C)cc2)c1O` [Example 178, 2-(cyclopropylmethyl)-6-hydroxy-1-[(1R)-2-methoxy-1-phenylethyl]-5-[4-(3-methylpyridin-4-yl)benzenesulfonyl]-1,4-dihydropyrimidin-4-one] it was 0.01 to 10 nM.

In the case of `CCCCc1nc(=O)c(S(=O)(=O)c2ccc(C3CC3)cn2)c(O)n1-c1c(CC)cccc1CC` [Example 102, 2-butyl-5-[(5-cyclopropylpyridin-2-yl)sulfonyl]-1-(2,6-diethylphenyl)-6-hydroxy-1,4-dihydropyrimidin-4-one], the EC50 was 0.01 to 10 nM. In the case of `CCCCc1nc(=O)c(S(=O)(=O)c2ccc(-c3ccc(NC(=O)OC)cc3)cc2)c(O)n1-c1c(OC)cccc1OC` [Example 48, methyl N-[4-(4-{[2-butyl-1-(2,6-dimethoxyphenyl)-6-hydroxy-4-oxo-1,4-dihydropyrimidin-5-yl]sulfonyl}phenyl)phe-nyl]carbamate], the concentration for a half-maximal effect (EC50) lay within 0.01 to 10 nM. On the same count and under the same terms, then `CCCCc1nc(=O)c(S(=O)(=O)c2ccc(C(F)(F)F)cn2)c(O)n1-c1c(OC)cccc1OC` [Example 6, 2-butyl-1-(2,6-dimethoxyphenyl)-6-hydroxy-5-{[5-(trifluoromethyl)pyridin-2-yl]sulfonyl}-1,4-dihydropyrimidin-4-one], with 0.01 to 10 nM; and `CCCCc1nc(=O)c(S(=O)(=O)c2ccc(-c3ccncc3C)cc2)c(O)n1[C@@H](CC)c1cccc(F)c1` [Example 212, 2-butyl-1-[(1S)-1-(3-fluorophenyl)propyl]-6-hydroxy-5-[4-(3-methylpyridin-4-yl)benzenesulfonyl]-1,4-dihydropyrimidin-4-one], with 0.01 to 10 nM; and `CCCCc1nc(=O)c(S(=O)(=O)c2ccc(C)cc2)c(O)n1[C@H](C)c1ccccc1` [Example 130, 2-butyl-6-hydroxy-5-(4-methylbenzenesulfonyl)-1-[(1R)-1-phenylethyl]-1,4-dihydropyrimidin-4-one], with 10 to 100 nM.
